This data set has as its system U138 cells. The experiment in a line: MTT cell viability / cytotoxicity assay in U138 cells. The protocol:
Various drug combinations were incubated with U138 cells in cell culture media and the cells were then washed with PBS and added fresh media.

Setting [1] is: therapeutic agent at 100 nM compared with non-toxic chemo-adjuvant O6-BG at 100 uM (FIG. 4).

The structures appear in SMILES notation.

Consider three molecules from US20130236504A1, “Delivery System for Enhancing Drug Efficacy” (CLEMSON UNIVERSITY, priority 2012, published 2013).

On to `Nc1nc(OCc2ccccc2)c2nc[nH]c2n1` [O6-BG, O6-Benzylguanine], for which the cytotoxicity entry (free O6-BG 100 μg/ml (FIG. 6)) was “not cytotoxic”. Also, the cell viability result (incubation with various concentrations of O6-BG (FIG. 3)) was “some effect on cell viability at very high concentrations”. Turning to `C=CC(=O)Nc1cc2c(Nc3ccc(F)c(Cl)c3)ncnc2cc1OCCCN1CCOCC1` [canertinib], under setting [1], the cell viability entry is recorded as “cell viability is lower”. Same read-out and setting: for `CC(=O)O[C@H]1C(=O)[C@@]2(C)[C@H]([C@H](OC(=O)c3ccccc3)[C@]3(O)C[C@H](OC(=O)[C@H](O)[C@@H](NC(=O)c4ccccc4)c4ccccc4)C(C)=C1C3(C)C)[C@]1(OC(C)=O)CO[C@@H]1C[C@@H]2O` [paclitaxel] the value was “cell viability is lower”.
